Measurements as given in paper PMC5218480 (PLoS ONE, 2017).

System: MV-4-11 cells
Test: Gene expression microarray analysis (Affymetrix PrimeView) and GSEA
Format: cell-based, human
Design: RFU PODN (11730768_x_at) / Fold change /veh PODN (11730768_x_at) / RFU LINC00158 (11744669_a_at) / Fold change /veh LINC00158 (11744669_a_at) / RFU DUSP10 (11751237_a_at) / Fold change /veh DUSP10 (11751237_a_at) / RFU ID3 (11757404_x_at) / Fold change /veh ID3 (11757404_x_at) / RFU PLEKHG5 (11737974_s_at) / Fold change /veh PLEKHG5 (11737974_s_at) / RFU LRRC4B (11730491_at) / Fold change /veh LRRC4B (11730491_at) / RFU GIMAP4 (11747438_a_at) / Fold change /veh GIMAP4 (11747438_a_at) / RFU KRT8 (11758183_x_at) / Fold change /veh KRT8 (11758183_x_at) / RFU CNN1 (11734310_a_at) / Fold change /veh CNN1 (11734310_a_at) / RFU VPS37D (11726825_at) / Fold change /veh VPS37D (11726825_at) / RFU C10orf10 (11716522_x_at) / Fold change /veh C10orf10 (11716522_x_at) / RFU KIR2DL2 /// KIR2DL4 /// KIR2DL5A /// KIR2DL5B /// KIR2DS1 /// KIR2DS2 /// KIR2DS3 /// KIR2DS4 /// KIR3DL3 /// KIR3DL3 /// KIR3DS1 (11738374_at) / Fold change /veh KIR2DL2 /// KIR2DL4 /// KIR2DL5A /// KIR2DL5B /// KIR2DS1 /// KIR2DS2 /// KIR2DS3 /// KIR2DS4 /// KIR3DL3 /// KIR3DL3 /// KIR3DS1 (11738374_at) / RFU C1QL1 (11718748_at) / Fold change /veh C1QL1 (11718748_at) / RFU TMPRSS4 (11747572_a_at) / Fold change /veh TMPRSS4 (11747572_a_at) / RFU HAMP (11756126_x_at) / Fold change /veh HAMP (11756126_x_at) / RFU RNFT2 (11725882_a_at) / Fold change /veh RNFT2 (11725882_a_at) / RFU NR4A2 (11747474_a_at) / Fold change /veh NR4A2 (11747474_a_at) / RFU ABCC12 (11746883_a_at) / Fold change /veh ABCC12 (11746883_a_at) / RFU TMEM136 (11760407_x_at) / Fold change /veh TMEM136 (11760407_x_at) / RFU CLDN22 /// WWC2 (11732394_at) / Fold change /veh CLDN22 /// WWC2 (11732394_at) / RFU HLA-DPB1 (11760878_x_at) / Fold change /veh HLA-DPB1 (11760878_x_at) / RFU SPINT1 (11716480_a_at) / Fold change /veh SPINT1 (11716480_a_at) / RFU GAP43 (11754022_s_at) / Fold change /veh GAP43 (11754022_s_at) / RFU A4GNT (11735810_at) / Fold change /veh A4GNT (11735810_at) / RFU PRB3 (11715151_x_at) / Fold change /veh PRB3 (11715151_x_at) / RFU TUBB4B (11761932_at) / Fold change /veh TUBB4B (11761932_at) / RFU CAPN14 (11732068_a_at) / Fold change /veh CAPN14 (11732068_a_at) / RFU TMCC2 (11721928_a_at) / Fold change /veh TMCC2 (11721928_a_at) / RFU IRGQ (11745062_a_at) / Fold change /veh IRGQ (11745062_a_at) / RFU FAM174B (11720279_a_at) / Fold change /veh FAM174B (11720279_a_at) / RFU TMPRSS4 (11748680_a_at) / Fold change /veh TMPRSS4 (11748680_a_at) / RFU FAM212B (11763350_a_at) / Fold change /veh FAM212B (11763350_a_at) / RFU PLEKHG5 (11743358_a_at) / Fold change /veh PLEKHG5 (11743358_a_at) / RFU ZSCAN30 (11745921_a_at) / Fold change /veh ZSCAN30 (11745921_a_at) / RFU CMKLR1 (11741424_a_at) / Fold change /veh CMKLR1 (11741424_a_at) / RFU LOC101060620 /// MAPK8IP1 (11723275_at) / Fold change /veh LOC101060620 /// MAPK8IP1 (11723275_at) / RFU SPTSSB (11747773_x_at) / Fold change /veh SPTSSB (11747773_x_at) / RFU PRSS12 (11739890_at) / Fold change /veh PRSS12 (11739890_at) / RFU BIN1 (11741810_x_at) / Fold change /veh BIN1 (11741810_x_at) / RFU WNT11 (11732464_a_at) / Fold change /veh WNT11 (11732464_a_at) / RFU C10orf10 (11716521_a_at) / Fold change /veh C10orf10 (11716521_a_at) / RFU C5orf56 (11738089_at) / Fold change /veh C5orf56 (11738089_at) / RFU CYB561 (11721691_x_at) / Fold change /veh CYB561 (11721691_x_at) / RFU ANKRD19P (11752326_a_at) / Fold change /veh ANKRD19P (11752326_a_at) / RFU OR2T12 /// OR2T33 /// OR2T8 (11738714_s_at) / Fold change /veh OR2T12 /// OR2T33 /// OR2T8 (11738714_s_at) / RFU VCAN (11748164_a_at) / Fold change /veh VCAN (11748164_a_at) / RFU JSRP1 (11732532_at) / Fold change /veh JSRP1 (11732532_at) / RFU KRTAP10-11 (11738290_x_at) / Fold change /veh KRTAP10-11 (11738290_x_at) / RFU MYO3A (11730013_a_at) / Fold change /veh MYO3A (11730013_a_at) / RFU EBF3 (11725865_a_at) / Fold change /veh EBF3 (11725865_a_at) / RFU CAMK2N1 (11719241_x_at) / Fold change /veh CAMK2N1 (11719241_x_at) / RFU C5orf56 (11738088_a_at) / Fold change /veh C5orf56 (11738088_a_at) / RFU OLFML3 (11715873_a_at) / Fold change /veh OLFML3 (11715873_a_at) / RFU LOC100653217 /// NTM (11731650_a_at) / Fold change /veh LOC100653217 /// NTM (11731650_a_at) / RFU MAPK11 (11762145_a_at) / Fold change /veh MAPK11 (11762145_a_at) / RFU FIZ1 (11724087_x_at) / Fold change /veh FIZ1 (11724087_x_at) / RFU OASL (11726364_x_at) / Fold change /veh OASL (11726364_x_at) / RFU SOX15 (11748057_x_at) / Fold change /veh SOX15 (11748057_x_at) / RFU CD79A (11719716_a_at) / Fold change /veh CD79A (11719716_a_at) / RFU HIST1H1D (11736915_at) / Fold change /veh HIST1H1D (11736915_at) / RFU CASKIN2 (11723855_a_at) / Fold change /veh CASKIN2 (11723855_a_at) / RFU LOC730098 (11760151_x_at) / Fold change /veh LOC730098 (11760151_x_at) / RFU OR4N2 (11742367_at) / Fold change /veh OR4N2 (11742367_at) / RFU PRRT2 (11749266_a_at) / Fold change /veh PRRT2 (11749266_a_at) / RFU SNX32 (11753110_a_at) / Fold change /veh SNX32 (11753110_a_at) / RFU CDHR5 (11726645_a_at) / Fold change /veh CDHR5 (11726645_a_at) / RFU RCAN1 (11760418_a_at) / Fold change /veh RCAN1 (11760418_a_at) / RFU FAM167A (11723789_a_at) / Fold change /veh FAM167A (11723789_a_at) / RFU FAM26E (11764081_at) / Fold change /veh FAM26E (11764081_at) / RFU ISYNA1 (11749810_s_at) / Fold change /veh ISYNA1 (11749810_s_at) / RFU ACY1 (11761880_at) / Fold change /veh ACY1 (11761880_at) / RFU 11764098_at / Fold change /veh 11764098_at / RFU SAMD14 (11745864_x_at) / Fold change /veh SAMD14 (11745864_x_at) / RFU NPB (11741838_a_at) / Fold change /veh NPB (11741838_a_at) / RFU TMPRSS6 (11731388_a_at) / Fold change /veh TMPRSS6 (11731388_a_at) / RFU KRTAP10-2 (11738614_at) / Fold change /veh KRTAP10-2 (11738614_at) / RFU ARHGAP8 /// PRR5-ARHGAP8 (11727945_x_at) / Fold change /veh ARHGAP8 /// PRR5-ARHGAP8 (11727945_x_at) / RFU KRTAP5-7 /// NADSYN1 (11734609_at) / Fold change /veh KRTAP5-7 /// NADSYN1 (11734609_at) / RFU RASL12 (11751679_a_at) / Fold change /veh RASL12 (11751679_a_at) / RFU CDKN2B (11736163_a_at) / Fold change /veh CDKN2B (11736163_a_at) / RFU PRF1 (11729649_at) / Fold change /veh PRF1 (11729649_at) / RFU, ZNF638 /// ZNF638-IT1 / Fold change vs veh, ZNF638 /// ZNF638-IT1 / RFU, PANK3 / Fold change vs veh, PANK3 / RFU, SH3YL1 / Fold change vs veh, SH3YL1 / RFU, ZEB2 / Fold change vs veh, ZEB2 / RFU, NRIP1 / Fold change vs veh, NRIP1 / RFU, PTTG1IP / Fold change vs veh, PTTG1IP / RFU, CAPN2 / Fold change vs veh, CAPN2 / RFU, MED14 / Fold change vs veh, MED14 / RFU, SNORA58 / Fold change vs veh, SNORA58 / RFU, C1orf63 / Fold change vs veh, C1orf63 / RFU, LRRFIP1 / Fold change vs veh, LRRFIP1 / RFU, NDUFAF7 / Fold change vs veh, NDUFAF7 / RFU, SLC12A2 / Fold change vs veh, SLC12A2 / RFU, IBTK / Fold change vs veh, IBTK / RFU, ESF1 / Fold change vs veh, ESF1 / Fold change vs veh, TMEM50B / RFU, TAOK1 / Fold change vs veh, TAOK1 / RFU, ACBD3 / Fold change vs veh, ACBD3 / RFU, TMA16 / Fold change vs veh, TMA16 / RFU, RWDD3 / Fold change vs veh, RWDD3 / RFU, BCAT1 / Fold change vs veh, BCAT1 / RFU, EDEM3 / Fold change vs veh, EDEM3 / RFU, TMEM33 / Fold change vs veh, TMEM33 / RFU, WDR75 / Fold change vs veh, WDR75 / RFU, AHCTF1 / Fold change vs veh, AHCTF1 / RFU, TFRC / Fold change vs veh, TFRC / RFU, ZDHHC17 / Fold change vs veh, ZDHHC17 / RFU, NOM1 / Fold change vs veh, NOM1 / RFU, ARL8B / Fold change vs veh, ARL8B / RFU, ZBTB11 / Fold change vs veh, ZBTB11 / RFU, TAMM41 / Fold change vs veh, TAMM41 / RFU, KIAA1704 /// LOC100996395 / Fold change vs veh, KIAA1704 /// LOC100996395 / RFU, ING1 / Fold change vs veh, ING1 / RFU, TRMT61B / Fold change vs veh, TRMT61B / RFU, FUBP3 / Fold change vs veh, FUBP3 / RFU, TP53 / Fold change vs veh, TP53 / RFU, TNKS2 / Fold change vs veh, TNKS2 / RFU, ZFP14 / Fold change vs veh, ZFP14 / RFU, ACTR2 / Fold change vs veh, ACTR2 / RFU, PPP3R1 / Fold change vs veh, PPP3R1 / RFU, PIK3R1 / Fold change vs veh, PIK3R1 / RFU, HNRNPA1 / Fold change vs veh, HNRNPA1 / RFU, RNF170 / Fold change vs veh, RNF170 / RFU, ZNF28 / Fold change vs veh, ZNF28 / RFU, RNGTT / Fold change vs veh, RNGTT / RFU, OGT / Fold change vs veh, OGT / RFU, BRD1 / Fold change vs veh, BRD1 / RFU, MARS / Fold change vs veh, MARS / RFU, ZNF655 / Fold change vs veh, ZNF655 / RFU, FAHD1 / Fold change vs veh, FAHD1 / RFU, BDP1 / Fold change vs veh, BDP1 / RFU, LRRCC1 / Fold change vs veh, LRRCC1 / RFU, ARID1A / Fold change vs veh, ARID1A / RFU, ZNF146 / Fold change vs veh, ZNF146 / RFU, ZNF330 / Fold change vs veh, ZNF330 / RFU, GPN3 / Fold change vs veh, GPN3 / RFU, C9orf123 / Fold change vs veh, C9orf123 / RFU, N4BP2L2 / Fold change vs veh, N4BP2L2 / RFU, ARFIP1 / Fold change vs veh, ARFIP1 / RFU, FAM179B / Fold change vs veh, FAM179B / RFU, BCL10 / Fold change vs veh, BCL10 / RFU, UHRF1BP1L / Fold change vs veh, UHRF1BP1L / RFU, BET1 / Fold change vs veh, BET1 / RFU, CNOT2 / Fold change vs veh, CNOT2 / RFU, ZNF268 / Fold change vs veh, ZNF268 / Fold change vs veh, ZNF507 / RFU, DGCR2 / Fold change vs veh, DGCR2 / RFU, WDSUB1 / Fold change vs veh, WDSUB1 / Fold change vs veh, HSP90B1 /// MIR3652 / RFU, ADSS / Fold change vs veh, ADSS / RFU, GK / Fold change vs veh, GK / RFU, ZNF148 / Fold change vs veh, ZNF148 / RFU, TAF9 / Fold change vs veh, TAF9 / RFU, SLC1A5 / Fold change vs veh, SLC1A5 / RFU, SLMO2 / Fold change vs veh, SLMO2 / RFU, ABCC4 / Fold change vs veh, ABCC4 / RFU, LOC101060439 /// RAP1B / Fold change vs veh, LOC101060439 /// RAP1B / RFU, RFX7 / Fold change vs veh, RFX7 / RFU, GTPBP10 / Fold change vs veh, GTPBP10 / RFU, CNEP1R1 / Fold change vs veh, CNEP1R1 / RFU, BIVM-ERCC5 /// ERCC5 / Fold change vs veh, BIVM-ERCC5 /// ERCC5 / RFU, ILF3 / Fold change vs veh, ILF3 / RFU 11762660_at / Fold change /veh 11762660_at / RFU VCAN (11757783_s_at) / Fold change /veh VCAN (11757783_s_at) / RFU DDX43 (11728927_at) / Fold change /veh DDX43 (11728927_at) / RFU KRT8 (11758188_x_at) / Fold change /veh KRT8 (11758188_x_at) / RFU NKD1 (11759106_at) / Fold change /veh NKD1 (11759106_at) / RFU SRD5A1 (11742802_a_at) / Fold change /veh SRD5A1 (11742802_a_at) / RFU TPSAB1 /// TPSB2 (11721975_s_at) / Fold change /veh TPSAB1 /// TPSB2 (11721975_s_at) / RFU GSTM3 (11746129_a_at) / Fold change /veh GSTM3 (11746129_a_at) / RFU IL23R (11737362_x_at) / Fold change /veh IL23R (11737362_x_at) / RFU TMEM51 (11727254_a_at) / Fold change /veh TMEM51 (11727254_a_at) / RFU PIWIL2 (11732686_x_at) / Fold change /veh PIWIL2 (11732686_x_at) / RFU ORM1 (11744905_x_at) / Fold change /veh ORM1 (11744905_x_at) / RFU CCDC152 (11743942_at) / Fold change /veh CCDC152 (11743942_at) / RFU ECM1 (11717891_a_at) / Fold change /veh ECM1 (11717891_a_at) / RFU IL23R (11748794_a_at) / Fold change /veh IL23R (11748794_a_at) / RFU TNFAIP8L3 (11732012_x_at) / Fold change /veh TNFAIP8L3 (11732012_x_at) / RFU MBOAT4 (11741988_at) / Fold change /veh MBOAT4 (11741988_at) / RFU 11764193_at / Fold change /veh 11764193_at / RFU TMEM53 (11763286_at) / Fold change /veh TMEM53 (11763286_at) / RFU MAGEB2 (11727129_at) / Fold change /veh MAGEB2 (11727129_at) / RFU TMEM200A (11744735_a_at) / Fold change /veh TMEM200A (11744735_a_at) / RFU CCDC152 (11751479_a_at) / Fold change /veh CCDC152 (11751479_a_at) / RFU FAM211A (11726209_a_at) / Fold change /veh FAM211A (11726209_a_at) / RFU RGS16 (11746705_a_at) / Fold change /veh RGS16 (11746705_a_at) / RFU VCAN (11755009_s_at) / Fold change /veh VCAN (11755009_s_at) / RFU RHOB (11743442_s_at) / Fold change /veh RHOB (11743442_s_at) / RFU RGS16 (11720943_a_at) / Fold change /veh RGS16 (11720943_a_at) / RFU RGS16 (11720944_at) / Fold change /veh RGS16 (11720944_at) / RFU, VPS4B / Fold change vs veh, VPS4B / RFU, CREB1 / Fold change vs veh, CREB1 / RFU, DNAJC13 / Fold change vs veh, DNAJC13 / RFU, GNAQ / Fold change vs veh, GNAQ / RFU, CDK5R1 / Fold change vs veh, CDK5R1 / RFU, ZRANB3 / Fold change vs veh, ZRANB3 / RFU, CUL4A / Fold change vs veh, CUL4A / RFU, CCNY / Fold change vs veh, CCNY / RFU, UFL1 / Fold change vs veh, UFL1 / RFU, COG3 / Fold change vs veh, COG3 / RFU, DIAPH2 / Fold change vs veh, DIAPH2 / RFU, SKA2 / Fold change vs veh, SKA2 / RFU, AFF3 / Fold change vs veh, AFF3 / RFU, LMF1 / Fold change vs veh, LMF1 / RFU, IPO11 / Fold change vs veh, IPO11 / RFU, DFFB / Fold change vs veh, DFFB / RFU, FOXP1 / Fold change vs veh, FOXP1 / RFU, CARD8 / Fold change vs veh, CARD8 / RFU, STRN3 / Fold change vs veh, STRN3 / RFU, ADK / Fold change vs veh, ADK / RFU, RASSF2 / Fold change vs veh, RASSF2 / RFU, WIPF1 / Fold change vs veh, WIPF1 / RFU, LARP1B / Fold change vs veh, LARP1B / RFU, RASA1 / Fold change vs veh, RASA1 / RFU, RB1 / Fold change vs veh, RB1 / RFU, PPFIA1 / Fold change vs veh, PPFIA1 / RFU, MAT2A / Fold change vs veh, MAT2A / RFU, CCT5 / Fold change vs veh, CCT5 / RFU, WDR92 / Fold change vs veh, WDR92 / RFU, CUX1 / Fold change vs veh, CUX1 / RFU, TTC7A / Fold change vs veh, TTC7A / RFU, TMEM135 / Fold change vs veh, TMEM135 / RFU, DEPTOR / Fold change vs veh, DEPTOR / RFU, CPM / Fold change vs veh, CPM / RFU, DNAJB6 / Fold change vs veh, DNAJB6 / RFU, CACNA2D3 / Fold change vs veh, CACNA2D3 / RFU, DTX4 / Fold change vs veh, DTX4 / RFU, TFCP2 / Fold change vs veh, TFCP2 / RFU, GMCL1 /// GMCL1P1 / Fold change vs veh, GMCL1 /// GMCL1P1 / RFU, AEBP2 / Fold change vs veh, AEBP2 / RFU, SNHG1 /// SNORD22 /// SNORD25 /// SNORD26 /// SNORD27 /// SNORD28 /// SNORD29 /// SNORD31 / Fold change vs veh, SNHG1 /// SNORD22 /// SNORD25 /// SNORD26 /// SNORD27 /// SNORD28 /// SNORD29 /// SNORD31 / Fold change (Aza/veh), C12orf56 (ProbeSet 11735607_a_at) / Fold change (ACY-1035/veh), C12orf56 (ProbeSet 11735607_a_at) / Fold change (Aza/veh), FGFR1OP (ProbeSet 11751329_s_at) / Fold change (ACY-1035/veh), FGFR1OP (ProbeSet 11751329_s_at) / Fold change (Aza/veh), VPS36 (ProbeSet 11739960_a_at) / Fold change (ACY-1035/veh), VPS36 (ProbeSet 11739960_a_at) / RFU SYPL1 (11715823_x_at) / Fold change /veh SYPL1 (11715823_x_at) / RFU IGFBP7 (11715501_s_at) / Fold change /veh IGFBP7 (11715501_s_at) / RFU REEP3 (11722064_at) / Fold change /veh REEP3 (11722064_at) / RFU IGLL1 (11728026_x_at) / Fold change /veh IGLL1 (11728026_x_at): dose or concentration left out as unconfirmed
Conditions: MV-4-11 cells, 48 hours

SMILES: Nc1ccc(-c2cccs2)cc1NC(=O)c1ccc2c(c1)cc(C1CC1)n2CCN1CCOCC1 [ACY-1035]
- Fold change /veh DUSP10 (11751237_a_at): 1.17
